In experiment [1] the target is T1, CDK2/Cyclin E1 (Homo sapiens, UniProt P24941).
T1 construct: purchased 14-475
The experiment can be described thus: Caliper Assay (LabChip EZ Reader mobility shift assay), inhibition of CDK2/Cyclin E1 activity. Format: biochemical. To be noted: 2.5 nM CDK2/Cyclin E1(14-475), 100 μM ATP, 30 min preincubation; read-out: Caliper Assay (CDK2/CCNE1): IC50. The method, then:
Inhibition of CDK2/Cyclin E1 activity in the presence of compounds of the present disclosure was evaluated using a Caliper LabChip® EZ Reader mobility shift assay. In the assay, activated CDK2/Cyclin E1 catalyzes the phosphorylation of a fluorescently tagged peptide 5-FAM-QSPKKG-CONH2 (PerkinElmer, FL Peptide 18) which induces a difference in capillary electrophoresis mobility. The peptide substrate and product were measured, and the conversion ratio was used to determine the inhibition (as % activity and IC50 values) of CDK2/Cyclin E1. Reactions contained 50 mM HEPES pH 7.5, 10 mM MgCl2, 1 mM EDTA, 2 mM DTT, 0.01% Brij35, 0.5 mg/mL BSA, 0.1% DMSO, 2.5 nM CDK2/Cyclin E1(14-475), 100 μM ATP, and 1.5 μM fluorescent peptide substrate.
Dose titrations of inhibitors in 100% DMSO were combined with 3.25 nM CDK2/Cyclin E1(14-475) and 130 μM of ATP in reaction buffer. The mixtures were incubated for 30 minutes before the addition of fluorescent peptide substrate to initiate the kinase reaction. The final conditions were 2.5 nM CDK2/Cyclin E1(14-475), 100 μM ATP, and 1.5 μM fluorescent peptide. The reactions were stopped after 100 minutes with the addition of EDTA (6 mM final EDTA concentration). The stopped reactions were analyzed on a Caliper LabChip© EZ Reader II. The conversion ratios were normalized to yield % activity, plotted against compound concentration, and fit to a four-parameter equation to determine the IC50 for each compound.

In experiment [2] the test system is Kuramochi cells. The experiment can be described thus: IncuCyte Kuramochi Assay (cell proliferation). Format: cell-based. To be noted: 72 h, Kuramochi cells labeled with mApple-H2B, cell count, read-out: IncuCyte - Kuramochi RB-WT: IC50. The method, then:
IncuCyte® assay was used to measure the effect of disclosed compounds on cell proliferation. Fluorescent microscopy images of cells were taken immediately after compound treatment and 72 hours later. Image analysis software was used to obtain cell counts as a function of compound concentration. Kuramochi cells labeled with mApple-H2B were seeded on 384-well assay-ready plates. Plates were placed in an IncuCyte® (Sartorius) and scanned at 0 and 72 hours. IncuCyte® software was used to count the number of fluorescent nuclei in each well. The fold change in cell count from 0 to 72 hours in wells treated with increasing compounds concentrations (10 pts, ½ log dilution, 20 μM top concentration) was normalized to DMSO control wells. The normalized cell counts were fit with dose response curves and a […] was calculated.

In the case of `Cc1cc(C)n(C(C)c2nnc(C3CN(C(=O)c4cnn(Cc5ccccc5)c4)CC34CN(C(=O)[C@H]3CC3(C)C)C4)o2)n1` (stereo partly drawn) [I-18], the IC50 in experiment [1] was 0.1 to 1 µM; in experiment [2], more than 10 µM.
Turning to `CC1(C)C[C@@H]1C(=O)N1CC2(CN(C(=O)c3cnn(Cc4ccccc4)c3)CC2c2nnc(CC3CCC(F)(F)CC3)o2)C1` (stereo partly drawn) [I-20], the figures for the IC50 in experiment [1] and in experiment [2] were 1 to 10 µM and more than 10 µM, respectively.
Turning to `Cc1cc(C)n([C@@H](C)c2nc(C3CN(C(=O)c4cnn(Cc5ccccc5)c4)CC34CN(C(=O)[C@H]3CC3(C)C)C4)no2)n1` (stereo partly drawn) [I-21, (1-benzyl-1H-pyrazol-4-yl)(8-(5-(1-(3,5-dimethyl-1H-pyrazol-1-yl)ethyl)-1,2,4-oxadiazol-3-yl)-2-((S)-2,2-dimethylcyclopropane-1-carbonyl)-2,6-diazaspiro[3.4]octan-6-yl)methanone], the results for the IC50 in experiment [1] and in experiment [2] were 0.1 to 1 µM and more than 10 µM, respectively.
`Cc1ccc(Cc2nnc(C3CN(C(=O)c4cnn(Cc5ccccc5)c4)CC34CN(C(=O)[C@H]3CC3(C)C)C4)o2)nn1` (stereo partly drawn) [I-22]: the values for the IC50 in experiment [1] and in experiment [2] were 1 to 10 µM and more than 10 µM, respectively.
As to `CC1(C)C[C@@H]1C(=O)N1CC2(CN(C(=O)c3cnn(Cc4ccccc4)c3)CC2c2nnc(Cc3ccncc3)o2)C1` (stereo partly drawn) [I-23], the values for the IC50 in experiment [1] and in experiment [2] were 0.1 to 1 µM and more than 10 µM, respectively.
For `CC1(C)C[C@@H]1C(=O)N1CC2(CN(C(=O)c3cnn(Cc4ccccc4)c3)CC2c2nnc(Cc3ccc(Cl)c(Cl)c3)o2)C1` (stereo partly drawn) [I-24], the IC50 in experiment [1] lay in the range of 0.1 to 1 µM; in experiment [2] it was 5 to 10 µM.
For the compound `CC1(C)C[C@@H]1C(=O)N1CC2(CN(C(=O)c3cncs3)CC2c2nnc(Cc3cccc(C4CCOCC4)n3)o2)C1` (stereo partly drawn) [I-25], the IC50 in experiment [1] was 0.1 to 1 µM; in experiment [2] it was more than 10 µM.
Regarding `CC1(C)C[C@@H]1C(=O)N1CC2(CN(C(=O)c3cncs3)CC2c2nnc(Cc3cc4ccccc4[nH]3)o2)C1` (stereo partly drawn) [I-26], the IC50 in experiment [1] is 1 to 10 µM; in experiment [2], more than 10 µM.
Taken in the same sequence, the figures for `CC1(C)C[C@@H]1C(=O)N1CC2(CN(C(=O)c3cncs3)CC2c2nnc(Cc3ccc4c(c3)OCCO4)o2)C1` (stereo partly drawn) [I-27] were 0.1 to 1 µM and more than 10 µM.
The corresponding values for `CC1(C)C[C@@H]1C(=O)N1CC2(CN(C(=O)c3cncs3)CC2c2nnc(CCc3ccc(Cl)c(Cl)c3)o2)C1` (stereo partly drawn) [I-28] are 0.1 to 1 µM and more than 10 µM.
For the compound `CC1(C)C[C@@H]1C(=O)N1CC2(CN(C(=O)c3cncs3)CC2c2nnc(Cc3cc[nH]n3)o2)C1` (stereo partly drawn) [I-29, (8-(5-((1H-pyrazol-3-yl)methyl)-1,3,4-oxadiazol-2-yl)-2-((S)-2,2-dimethylcyclopropane-1-carbonyl)-2,6-diazaspiro[3.4]octan-6-yl)(thiazol-5-yl)methanone], the IC50 in experiment [1] and in experiment [2] was more than 10 µM throughout.
Turning to `CC1(C)C[C@@H]1C(=O)N1CC2(CN(C(=O)c3cncs3)CC2c2nnc(Cc3ccc(Cl)cc3)o2)C1` (stereo partly drawn) [I-30], the IC50 in experiment [1] is 1 to 10 µM; in experiment [2], more than 10 µM.
Turning to `CC1(C)C[C@@H]1C(=O)N1CC2(CN(C(=O)c3cncs3)CC2c2nnc(Cc3ccc(C4CCOCC4)c(Cl)c3)o2)C1` (stereo partly drawn) [I-31], the IC50 in experiment [1] is 0.1 to 1 µM; in experiment [2] it was more than 10 µM.
For `CC1(C)C[C@@H]1C(=O)N1CC2(CN(C(=O)c3cncs3)CC2c2nnc(Cc3cccc4c3OCCO4)o2)C1` (stereo partly drawn) [I-33], the results for the IC50 in experiment [1] and in experiment [2] were 1 to 10 µM and more than 10 µM, respectively.
Taken in the same sequence, the figures for `COc1ccccc1C(F)(F)c1nnc(C2CN(C(=O)c3cncs3)CC23CN(C(=O)[C@H]2CC2(C)C)C3)o1` (stereo partly drawn) [I-34] were 1 to 10 µM and more than 10 µM.
As for `CC1(C)C[C@@H]1C(=O)N1CC2(C1)CN(c1ncnc3ncsc13)CC2c1nnc(C(F)(F)c2ccc(Cl)cc2)o1` (stereo partly drawn) [I-37, (8-(5-((4-chlorophenyl)difluoromethyl)-1,3,4-oxadiazol-2-yl)-6-(thiazolo[4,5-d]pyrimidin-7-yl)-2,6-diazaspiro[3.4]octan-2-yl)((S)-2,2-dimethylcyclopropyl)methanone], the IC50 in experiment [1] was 1 to 10 µM; in experiment [2], more than 10 µM.
Turning to `CC(C)(c1ccc(Cl)c(Cl)c1)c1nnc(C2CN(C(=O)c3cncs3)CC23CN(C(=O)[C@H]2CC2(C)C)C3)o1` (stereo partly drawn) [I-39], the figures for the IC50 in experiment [1] and in experiment [2] were 0.1 to 1 µM and more than 10 µM, respectively.
For the compound `CC1(C)C[C@@H]1C(=O)N1CC2(CN(C(=O)c3cncs3)CC2c2nnc(C(F)(F)c3ccc(C4CC4)cc3)o2)C1` (stereo partly drawn) [I-40], the IC50 is 0.1 to 1 µM in experiment [1] and more than 10 µM in experiment [2].
For the compound `O=C(c1cncs1)N1CC(c2nnc(Cc3ccc(Cl)c(Cl)c3)o2)C2(C1)CN(c1nc3ccccc3o1)C2` (stereo not drawn) [I-41], the IC50 in experiment [1] and in experiment [2] was more than 10 µM each time.
With `CCOc1cc(C)nn1C(C)c1nc(C2CN(C(=O)c3cncs3)CC23CN(C(=O)[C@H]2CC2(C)C)C3)no1` (stereo partly drawn) [I-42, (2-((S)-2,2-dimethylcyclopropane-1-carbonyl)-8-(5-(1-(5-ethoxy-3-methyl-1H-pyrazol-1-yl)ethyl)-1,2,4-oxadiazol-3-yl)-2,6-diazaspiro[3.4]octan-6-yl)(thiazol-5-yl)methanone], the IC50 in experiment [1] is 1 to 10 µM; in experiment [2], more than 10 µM.
Consider `CC1(C)C[C@@H]1C(=O)N1CC2(CN(C(=O)c3ccnnc3)CC2c2nnc(C(F)(F)c3ccc(Cl)c(Cl)c3)o2)C1` (stereo partly drawn) [I-43, (8-(5-((3,4-dichlorophenyl)difluoromethyl)-1,3,4-oxadiazol-2-yl)-2-((S)-2,2-dimethylcyclopropane-1-carbonyl)-2,6-diazaspiro[3.4]octan-6-yl)(pyridazin-4-yl)methanone], for which the IC50 is 1 to 10 µM in experiment [1] and more than 10 µM in experiment [2].
Turning to `CC1(C)C[C@@H]1C(=O)N1CC2(CN(C(=O)c3cnco3)CC2c2nnc(C(F)(F)c3ccc(Cl)c(Cl)c3)o2)C1` (stereo partly drawn) [I-44], the IC50 is 1 to 10 µM in experiment [1] and more than 10 µM in experiment [2].
As to `CC1(C)C[C@@H]1C(=O)N1CC2(CN(C(=O)c3ncccn3)CC2c2nnc(C(F)(F)c3ccc(Cl)c(Cl)c3)o2)C1` (stereo partly drawn) [I-46], the IC50 in experiment [1] and in experiment [2] was more than 10 µM throughout.
Regarding `O=C(c1cncs1)N1CC(c2nnc(Cc3ccc(Cl)c(Cl)c3)o2)C2(C1)CN(c1ncc(C(F)(F)F)cn1)C2` (stereo not drawn) [I-47], the IC50 in experiment [1] and in experiment [2] was more than 10 µM throughout.
`O=C(c1cncs1)N1CC(c2nnc(Cc3ccc(Cl)c(Cl)c3)o2)C2(C1)CN(c1ncccn1)C2` (stereo not drawn) [I-49]: the IC50 in experiment [1] and in experiment [2] was more than 10 µM throughout.
With `CC1(C)C[C@@H]1C(=O)N1CC2(CN(C(=O)c3cncs3)CC2c2nnc(Cc3nc(C4CCOCC4)ccc3F)o2)C1` (stereo partly drawn) [I-50, (2-((S)-2,2-dimethylcyclopropane-1-carbonyl)-8-(5-((3-fluoro-6-(tetrahydro-2H-pyran-4-yl)pyridin-2-yl)methyl)-1,3,4-oxadiazol-2-yl)-2,6-diazaspiro[3.4]octan-6-yl)(thiazol-5-yl)methanone], the values for the IC50 in experiment [1] and in experiment [2] were 1 to 10 µM and more than 10 µM, respectively.
On to `CC1(C)C[C@@H]1C(=O)N1CC2(CN(C(=O)c3cncs3)CC2c2cn(Cc3ccc(Cl)c(Cl)c3)nn2)C1` (stereo partly drawn) [I-51, (8-(1-(3,4-dichlorobenzyl)-1H-1,2,3-triazol-4-yl)-2-((S)-2,2-dimethylcyclopropane-1-carbonyl)-2,6-diazaspiro[3.4]octan-6-yl)(thiazol-5-yl)methanone], for which the IC50 in experiment [1] and in experiment [2] was more than 10 µM each time.
Consider `CC1(C)C[C@@H]1C(=O)N1CC2(CN(C(=O)c3cn[nH]c3)CC2c2nnc(C(F)(F)c3ccc(Cl)c(Cl)c3)o2)C1` (stereo partly drawn) [I-52], for which the IC50 in experiment [1] was 0.1 to 1 µM; in experiment [2], more than 10 µM.
Regarding `CC1(C)C[C@@H]1C(=O)N1CC2(CN(C(=O)c3cccnn3)CC2c2nnc(C(F)(F)c3ccc(Cl)c(Cl)c3)o2)C1` (stereo partly drawn) [I-53], the IC50 in experiment [1] and in experiment [2] was more than 10 µM in each case.
For `CC1(C)C[C@@H]1C(=O)N1CC2(CN(C(=O)c3cnc(C(F)(F)F)s3)CC2c2nnc(C(F)(F)c3ccc(Cl)c(Cl)c3)o2)C1` (stereo partly drawn) [I-54], the IC50 in experiment [1] and in experiment [2] was more than 10 µM each time.
Consider `COc1ccc(C2CCOCC2)nc1Cc1nnc(C2CN(C(=O)c3cncs3)CC23CN(C(=O)[C@H]2CC2(C)C)C3)o1` (stereo partly drawn) [I-55], for which the IC50 was 0.1 to 1 µM in experiment [1] and more than 10 µM in experiment [2].
For the compound `CC1(C)C[C@@H]1C(=O)N1CC2(CN(C(=O)c3cncnc3)CC2c2nnc(C(F)(F)c3ccc(Cl)c(Cl)c3)o2)C1` (stereo partly drawn) [I-56], the IC50 in experiment [1] is 1 to 10 µM; in experiment [2], more than 10 µM.
As for `CC(C)(C(=O)N1CC2(CN(C(=O)c3cncs3)CC2c2nnc(C(F)(F)c3ccc(Cl)c(Cl)c3)o2)C1)C(F)(F)F` (stereo not drawn) [I-57], the IC50 was 0.1 to 1 µM in experiment [1] and more than 10 µM in experiment [2].

Source of the values: patent US20260151375A1, “CDK2 INHIBITORS AND METHODS OF USING THE SAME” (Cedilla Therapeutics, Inc., priority 2022, published 2026).
